System: irritative contact dermatitis induced on the ears of mice by croton oil
Experiment: Croton oil-induced irritative contact dermatitis on the mouse ear (ear weight, elastase and peroxidase in ear homogenate)
Type: in vivo
Details: for Edema formation Weight change in %: ear weight at 24 h, vs croton oil + vehicle; for Inhibition [%] of Skin infiltration of Granulocytes & Monocytes (Myelo-Peroxidase Activity) / Inhibition [%] of Skin infiltration of Neutrophils Elastase Activity: ear homogenate at 24 h
Excerpt: To do this, an inflammatory reaction, i.e., irritative contact dermatitis, is induced on the ears of mice by means of croton oil, and the test substance is applied. This test is explained in more detail below within the framework of the examples. The induction of an inflammatory reaction (irritative contact dermatitis) is a proven model for pharmacological evaluation of the anti-inflammatory potential of topically or systemically administered test substances ([…] and Lowe (1985) Evaluation of Topical Nonsteroidal Anti-Inflammatory Agents, Models in Dermatology, H. Maibach and N.J. Lowe. Basel, Karger: 35-42). Croton oil is applied to the ears of mice to carry out the study; this leads to an acute, inflammatory reaction with edema and infiltration of primarily polymorphonuclear granulocytes that reaches its peak within 24 hours. Test substance can be applied here either preventively, i.e., before application of the inflammatory stimulus, or simultaneously with croton oil. […] The vehicle alone acted as the vehicle control. […] The animals were sacrificed 24 hours after the eczema was triggered, and the ear weight was determined as a measure of inflammation and edema formation. In addition, the elastase and peroxidase parameters were determined from the ear homogenate. The number of animals was basically n=10/group. Elastase is a largely neutrophil-specific enzyme and thus a measure of the number of infiltrated neutrophilic granulocytes. […] Peroxidase is expressed by all granulocytes, in addition also by monocytes. It is used for measuring the infiltrated granulocytes and monocytes. Like neutrophils, granulocytes and monocytes/macrophages are also involved in inflammatory processes of the skin and can be repeatedly detected in the infiltrate of the aforementioned diseases.

[1] = azelaic acid 10%, listed as azelaic acid
[2] = azelaic acid 20%, listed as azelaic acid
[3] = tretinoin 0.05%, listed as tretinoin

O=C(O)CCCCCCCC(=O)O [Azelaic acid, azelaic acid]
Edema formation Weight change in % (azelaic acid 10% topical with 1% croton oil): −6%
Edema formation Weight change in % (azelaic acid 10% topical with 1% croton oil, listed as azelaic acid): no significant reduction of the edema
Inhibition [%] of Skin infiltration of Granulocytes & Monocytes (Myelo-Peroxidase Activity) (azelaic acid 10%): −34%
Inhibition [%] of Skin infiltration of Neutrophils Elastase Activity (azelaic acid 10%): −12%
Inhibition [%] of Skin infiltration of Granulocytes & Monocytes (Myelo-Peroxidase Activity) [1]: could already be influenced
Inhibition [%] of Skin infiltration of Neutrophils Elastase Activity [1]: cannot be significantly influenced
Edema formation Weight change in % (azelaic acid 15% topical with 1% croton oil): 1%
Edema formation Weight change in % (azelaic acid 15% topical with 1% croton oil, listed as azelaic acid): even an increase
Inhibition [%] of Skin infiltration of Granulocytes & Monocytes (Myelo-Peroxidase Activity) (azelaic acid 15%): −16%
Inhibition [%] of Skin infiltration of Neutrophils Elastase Activity (azelaic acid 15%): −6%
Inhibition [%] of Skin infiltration of Neutrophils Elastase Activity (azelaic acid 15%, listed as azelaic acid): cannot be significantly influenced
Edema formation Weight change in % (azelaic acid 20% topical with 1% croton oil): −16%
Edema formation Weight change in % (azelaic acid 20% topical with 1% croton oil, listed as azelaic acid): no significant reduction of the edema
Inhibition [%] of Skin infiltration of Granulocytes & Monocytes (Myelo-Peroxidase Activity) (azelaic acid 20%): −40%
Inhibition [%] of Skin infiltration of Neutrophils Elastase Activity (azelaic acid 20%): −48%
Inhibition [%] of Skin infiltration of Granulocytes & Monocytes (Myelo-Peroxidase Activity) [2]: could already be influenced
Inhibition [%] of Skin infiltration of Neutrophils Elastase Activity [2]: reduced

CC1=C(/C=C/C(C)=C/C=C/C(C)=C/C(=O)O)C(C)(C)CCC1 [Tretinoin, tretinoin]
Edema formation Weight change in % (tretinoin 0.05% topical with 1% croton oil): −4%
Edema formation Weight change in % (tretinoin 0.05% topical with 1% croton oil, listed as tretinoin): does not lead to any significant reduction of edema
Inhibition [%] of Skin infiltration of Granulocytes & Monocytes (Myelo-Peroxidase Activity) (tretinoin 0.05%): −3%
Inhibition [%] of Skin infiltration of Neutrophils Elastase Activity (tretinoin 0.05%): 2%
Inhibition [%] of Skin infiltration of Granulocytes & Monocytes (Myelo-Peroxidase Activity) [3]: did not lead to a significant decrease of peroxidase concentration
Inhibition [%] of Skin infiltration of Neutrophils Elastase Activity [3]: did not lead to a decrease of the elastase concentration

From patent US20110160306A1, “USE OF ALKANEDICARBOXYLIC ACIDS AND RETINOIDS FOR TREATMENT OF ROSACEA AND OTHER INFLAMMATORY SKIN DISEASES” (priority 2006, published 2011)
